Measured values published in US10220046B2, “Compositions and methods for disease treatment using nanoparticle delivered compounds” (THE REGENTS OF THE UNIVERSITY OF MICHIGAN, priority 2014, dated 2019).
Non-standard residues stand in square brackets, D forms with d. No end group written: not given here.

What was measured:
[1] = sHDL nanoparticle formation and loading with additional anticancer agents; format: physicochemical; conditions: agent in place of WGA-TA
Excerpt: The composition as described in Example was made with various anticancer agents in place of WGA-TA.

[2] = biological target: T1, LCAT (Homo sapiens, UniProt P04180); conditions: cited from earlier work
T1 sequence (P04180 25-440): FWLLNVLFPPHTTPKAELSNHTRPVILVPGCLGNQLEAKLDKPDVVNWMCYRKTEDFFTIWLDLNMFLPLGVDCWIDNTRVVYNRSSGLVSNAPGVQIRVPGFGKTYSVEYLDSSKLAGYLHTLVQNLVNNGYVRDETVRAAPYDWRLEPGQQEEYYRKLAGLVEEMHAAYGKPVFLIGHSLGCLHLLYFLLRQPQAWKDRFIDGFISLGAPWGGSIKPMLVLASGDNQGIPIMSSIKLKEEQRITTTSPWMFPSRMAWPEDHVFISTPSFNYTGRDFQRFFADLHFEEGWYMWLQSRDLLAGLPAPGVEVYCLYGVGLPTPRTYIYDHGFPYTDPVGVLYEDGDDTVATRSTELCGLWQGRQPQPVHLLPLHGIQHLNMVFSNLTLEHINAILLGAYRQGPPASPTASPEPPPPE

[3] = system: NCI-H295R cells; test: Apoptosis by flow cytometry (annexin V-FITC/propidium iodide); format: cell-based, human; conditions: combination with sHDL vs. drug alone, 24 h
Experimental: (§1) Following treatment, cells were washed, re-suspended in annexin binding buffer and stained using annexin V-FITC/Propidium iodide as previously described (Subramanian et al., World J. Surg., 2014, 38(6): 1343-52). Induction of apoptosis was measured using the CyAn ADP Analyzer (Beckman Coulter, Inc., Indianapolis, Ind.).

[4] = system: SW13 cells; test: as above; format: cell-based, human; conditions: combined with sHDL vs. drug alone, 24 h
Experimental: as §1

[5] = system: NCI-H295R cells; test: Mitochondrial membrane potential (TMRE); format: cell-based, human; conditions: combination with sHDL vs. drug alone, 24 h
Experimental: (§2) SW13 and NCI-H295R were seeded in a 96 well black wall plate. Once attached, they were treated with the drugs as described above. 24 h post drug treatment, 500 nM tetramethylrhodamine, ethyl ester (TMRE) was added and the cells were incubated for 20 minutes at 37° C. and the fluorescent signal was measured after washing using a microplate reader (excitation=549, emission=575). 100 nM FCCP (carbonyl cyanide 4-(trifluoromethoxy)phenylhydrazone) was added to cells 10 minutes before the addition of TMRE as a negative control.

[6] = system: SW13 cells; test: Mitochondrial membrane potential (TMRE); format: cell-based, human; conditions: combination with sHDL vs. drug alone, 24 h
Experimental: as §2

[7] = system: adrenocortical carcinoma (ACC); conditions: advanced ACC patients; cited from earlier work
[8] = system: genes involved in steroidogenesis in NCI-H295R cells; test: Real time RT-PCR of genes involved in steroidogenesis; format: cell-based, human; conditions: combination with sHDL compared to monotherapy, 24 h; decreased for P and M, increased for E
Experimental: RNA from the NCI-H295R cells after drug treatment for 24 h was prepared using Qiagen RNA isolation kit (Qiagen Sciences, Valencia, Calif.). Approximately 500 ng of RNA was reverse transcribed using superscript RT kit from Life Technologies (Grand Island, N.Y.). qPCR was performed in a step-one RT PCR machine using the gene specific primer sets (Table 3) as published (11). Relative gene expression levels were calculated after normalization with internal control.

[9] = system: cortisol production of NCI-H295R cells; test: Cortisol immunoassay of culture supernatant; format: cell-based, human; conditions: 24 h
Experimental: The cortisol immunoassay (Alpco, Salem, N.H.) was used to quantitate cortisol levels in the culture supernatant of steroid producing NCI-H295R cells after treatment with drug combinations (same as in clonogic assay) for 24 h per the manufacturer instructions. Briefly, culture supernatant after treatment was added to the antibody coated-plates containing assay buffer (45 minutes at 25° C.). After washing, tetra methyl benzidine (TMB) substrate was incubated at RT and absorbance measured using a Synergy Neo reader (BioTek, Winooski, Vt.).

[10] = system: SW13 and NCI-H295R cells; test: Cell viability assay (CellTiter-Glo) and combination index; format: cell-based, human
Experimental: Serial dilutions were made from the starting concentrations and viability of cells was then measured based on quantification of the ATP levels after treatment with CellTiter-Glo luminescent assay reagent as per the manufacturer's instruction (Promega, Madison, Wis.) with luminescence quantified using a BioTek Synergy Neo plate reader (BioTek, Winooski, Vt.). […] For all cell-based experiments, the experimental control group was defined, unless stated otherwise, as untreated cells or cells treated with single drug alone (when comparing to combination regimens).

[11] = system: SW13 MCAs; test: Three dimensional multicellular aggregate (MCA) treatment; format: cell-based, human; conditions: in combination with 50 μg/ml sHDL, 24 h
Excerpt: (§3) To evaluate the translational potential of the combination therapy, three-dimensional multicellular aggregates were developed to mimic the in vivo tumor model as described by Jain et al. (Jain et al., Endocrine-related cancer. 2013 June; 20(3):361-70, herein incorporated by reference in its entirety). […] Untreated, sHDL alone treated cells served as controls. The MCAs were photographed before and after treatment and the MCAs were quantified by Image J software (NIH) as described by Jain et al.

[12] = system: NCI-H295R MCAs; test: as above; format: cell-based, human; conditions: in combination with 50 μg/ml sHDL, 24 h
Excerpt: as §3

[13] = system: NCI-H295R cells; test: Colony formation assay; format: cell-based, human; conditions: clonogenic assay, 24 h treatment, with 50 μg/ml sHDL
Experimental: (§4) NCI-H295R and SW13 cells were plated in 6-well plates and allowed to attach. […] The medium was changed and surviving cells allowed to grow colonies of 50 cells or more for two weeks, then washed, fixed, and stained with coomassie blue and counted. Total colony numbers were normalized to untreated controls.

[14] = system: SW13 cells; test: Colony formation assay; format: cell-based, human; conditions: clonogenic assay, 24 h treatment, with 50 μg/ml sHDL
Experimental: as §4

[15] = Metabolite analysis in mouse plasma by LC-MS/MS; format: in vivo, CD-1 white mice; conditions: IV 4 mg/kg WGA-TA in dextran formulation, 30 minutes after administration
Experimental: CD-1 white mice were given an IV dosage of 4 mg/kg WGA-TA in dextran formulation. Samples of blood was collected at different time points in heparin treated tubes and the plasma collected after centrifugation at 13,000 rpm for 10 min and was frozen at −80° C. for later analysis. For the evaluation of metabolites, 300 uL of ice-cold acetonitrile was added to 100 uL of the mouse plasma and then centrifuged at 4° C. in 15000 rpm for 10 minutes. The top supernatant was dried under a stream of nitrogen gas. The residue was finally reconstituted in a 100 uL solution of 20% acetonitrile (80% water). Blank plasma needed for the control was prepared from untreated CD-1 white mice blood as above. As a negative control, blank plasma spiked with WGA-TA before extraction was used. The LC-MS/MS analysis was conducted using a Shimadzu HPLC system coupled with an API 4500 mass spectrometer (Applied Biosystems, MDS Sciex Toronto, Canada), equipped with an API electrospray ionization (ESI) source. Enhanced MS, product ion-scan, and MRM scan were used as a survey scan to identify metabolites of WGA-TA. Information dependent acquisition (IDA) was used to collect fragmentation of metabolite candidates or single experiment of enhanced product ion scan was applied to acquire fragmentation of metabolites after running survey scan. […]

Question: Which “nanoparticle formation and loading in sHDL” value [1] does the source give for `O=NN(CCCl)C(=O)NC1CCCCC1` [CCNU, lomustine] here?
Answer: Its value is “Successful nanoparticle formation and loading”.

Question: With “Ac-PVLDEFREKLNEELEALKQKLK-NH2 [consensus 22-mer]” as the molecule, how does the “LCAT activation as compared with native ApoA-I” value [2] read?
Answer: Its value is 10%.

Question: Which results are given for `Clc1ccc(C(c2ccccc2Cl)C(Cl)Cl)cc1` (stereo not shown) [mitotane]?
Answer: increase in the percentage of apoptotic cells (early and late) [3]: 36.01%; increase of apoptotic cell death [4]: 11.9%; reduction in mitochondrial potential ΔΨ [5]: 14.49%; reduction in mitochondrial potential ΔΨ [6]: 19.8%; improvement in survival rate [7]: 14-50 months; initial response rates [7]: 20-30%; HSD3B2 level [8]: 0.2 fold change; decrease of cortisol production levels ([9]; drug alone vs. controls): 84.7%; decrease of cortisol production levels ([9]; in combination with sHDL): not significantly different; IC50 value ([10]; SW13 cells compared to NCI-H295R cells): higher IC50 value; reduction in MCAs [11]: approximately 50%; reduction in MCAs [12]: ~30%; higher reduction in viability, combination compared to single drug alone [13]: 39.1%; higher reduction in viability, combination compared to single drug alone [14]: 22.3%

Question: Which “nanoparticle formation and loading in sHDL” value [1] does the source give for `CC[C@@]1(O)C(=O)OCc2c1cc1n(c2=O)Cc2cc3cc(O)ccc3nc2-1` [10-hydroxy camptothecin] here?
Answer: The value was “Successful nanoparticle formation and loading”.

Question: For `CC(=O)O[C@@]12CO[C@@H]1C[C@H](O)[C@@]1(C)C(=O)[C@H](O)C3=C(C)[C@@H](OC(=O)[C@H](O)[C@@H](NC(=O)OC(C)(C)C)c4ccccc4)C[C@@](O)([C@@H](OC(=O)c4ccccc4)[C@H]21)C3(C)C` [docetaxel], which “nanoparticle formation and loading in sHDL” value [1] is on record?
Answer: The value was “Successful nanoparticle formation and loading”.

Question: What does the source list for `COc1cc([C@@H]2c3cc4c(cc3[C@@H](O[C@@H]3O[C@@H]5CO[C@@H](C)O[C@H]5[C@H](O)[C@H]3O)[C@H]3COC(=O)[C@H]23)OCO4)cc(OC)c1O` [etoposide]?
Answer: increase in the percentage of apoptotic cells (early and late) [3]: 36.46%; increase of necrotic cell death [4]: 21.33%; reduction in mitochondrial potential ΔΨ [5]: 9.2%; reduction in mitochondrial potential ΔΨ [6]: 31.54%; HSD3B2 level [8]: 2.1 fold change; decrease of cortisol production levels ([9]; drug alone vs. controls): 82.1%; decrease of cortisol production levels ([9]; in combination with sHDL): not significantly different; reduction in MCAs [11]: ~25%; reduction in MCAs [12]: approximately 50%; higher reduction in viability, combination compared to single drug alone [13]: 44.6%; higher reduction in viability, combination compared to single drug alone [14]: 39.52%

Question: For `CC(=O)O[C@H]1C(=O)[C@@]2(C)[C@H]([C@H](OC(=O)c3ccccc3)[C@]3(O)C[C@H](OC(=O)[C@H](O)[C@@H](NC(=O)c4ccccc4)c4ccccc4)C(C)=C1C3(C)C)[C@]1(OC(C)=O)CO[C@@H]1C[C@@H]2O` [paclitaxel], which “nanoparticle formation and loading in sHDL” value [1] is on record?
Answer: The value was “Successful nanoparticle formation and loading”.

Question: With `CC(=O)OCC1=C(C)C[C@H]([C@@H](C)C2CC[C@H]3[C@@H]4C[C@H]5O[C@]56[C@@H](OC(C)=O)C=CC(=O)[C@]6(COC(C)=O)[C@H]4CC[C@]23C)OC1=O` (stereo partly shown) [WGA-TA, 4, 19, 27-triacetyl withalongolide A] as the molecule, how does the “metabolic identification in plasma” value [15] read?
Answer: Its value is “three deacetylation products”.

Question: For “PVLELFENLLERLLDALQKKLK (listed as Homo sapiens) [SEQ ID NO:2, ApoA-I agonist peptide]”, which “LCAT activation as compared with native ApoA-I” value [2] is on record?
Answer: Its value is 86%.

Question: Which “combination index (CI)” value ([10]; combined with sHDL nanoparticles (25 and 50 μg/ml), Chou-Talalay, 72 h) does the source give for `COc1cccc2c1C(=O)c1c(O)c3c(c(O)c1C2=O)C[C@@](O)(C(=O)CO)C[C@@H]3O[C@H]1C[C@H](N)[C@H](O)[C@H](C)O1` [doxorubicin] here?
Answer: Its value is greater than 1.

Question: Which results are given for `N.N.[Cl][Pt][Cl]` [cisplatin]?
Answer: increase in the percentage of apoptotic cells (early and late) [3]: 6.16%; increase of necrotic cell death [4]: 14.71%; reduction in mitochondrial potential ΔΨ [5]: 13.09%; reduction in mitochondrial potential ΔΨ [6]: 6.5%; HSD3B2 level [8]: 0.1 fold change; decrease of cortisol production levels ([9]; drug alone vs. controls): 8.39%; decrease of cortisol production levels ([9]; in combination with sHDL): 82%; reduction in MCAs [11]: approximately 50%; reduction in MCAs [12]: Approximately 20%

Question: With “pVLELFENLLERLLDALQKKLK ([dP]VLELFENLLERLLDALQKKLK) [SEQ ID NO:3, ApoA-I agonist peptide with D-Pro at X1]” as the molecule, how does the “LCAT activation as compared with native ApoA-I” value [2] read?
Answer: The value was 111%.
